# In patent publication US8952024B2, “Herbicidal pyrimidone derivatives” (E I du Pont de Nemours and Company, priority 2009, dated 2015):
# Read-outs that look alike come from different tables or passages of the source.
# Assays:
# Format in all cases: in vivo
# [1] = test system: barnyardgrass (Echinochloa crus-galli); experiment: Test A pre-/postemergence plant response; conditions: for pest or weed control at 125 g/ha / pest or weed control at 500 g/ha: Echinochloa crus-galli, 240 h
# Procedure, shortened: (§1)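 Seeds planted in loam soil/sand blend; test chemicals in non-phytotoxic solvent mixture with surfactant applied as directed soil spray preemergence and, concurrently, postemergence to plants 2–10 cm tall at one- to two-leaf stage. Greenhouse ~10 days; visual injury vs untreated controls, 0 (no effect) to 100 (complete control).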
# corn (Zea mays) = experiment: Test A pre-/postemergence plant response
# Procedure, shortened: as §1
# [2] = test system: giant foxtail (Setaria faberii); experiment: Test A pre-/postemergence plant response; conditions: for pest or weed control at 125 g/ha / pest or weed control at 500 g/ha: Setaria faberi, 240 h
# Procedure, shortened: as §1
# [3] = test system: pigweed (Amaranthus retroflexus); experiment: Test A pre-/postemergence plant response; conditions: for pest or weed control at 125 g/ha / pest or weed control at 500 g/ha: Amaranthus retroflexus, 240 h
# Procedure, shortened: as §1
# [4] = test system: barnyardgrass (Echinochloa crus-galli); experiment: Test B flooded paddy test; conditions: for Barnyardgrass plant response rating: Flood, 31 g ai/ha, scale 0 to 100 (0 no effect, 100 complete control)
# Procedure, shortened: (§2)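 Greenhouse-held for 13 to 15 days, treated pots were compared visually with controls and scored 0–100 (0, no effect). Treatment had been made into paddy water kept at 3 cm above the soil, with plants at the 2-leaf stage.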
# [5] = test system: ducksalad (Heteranthera limosa); experiment: Test B flooded paddy test; conditions: for Ducksalad plant response rating: Flood, 31 g ai/ha, scale 0 to 100 (0 no effect, 100 complete control)
# Procedure, shortened: as §2
# rice (Oryza sativa) = experiment: Test B flooded paddy test; conditions: for Rice plant response rating: Flood, 31 g ai/ha, scale 0 to 100 (0 no effect, 100 complete control)
# Procedure, shortened: as §2
# [6] = test system: umbrella sedge (Cyperus difformis); experiment: Test B flooded paddy test; conditions: for Sedge, Umbrella plant response rating: Flood, 31 g ai/ha, scale 0 to 100 (0 no effect, 100 complete control)
# Procedure, shortened: as §2
# [7] = Postemergence, 125 g ai/ha, 0 to 100 scale where 0 is no effect and 100 is complete control
# [8] = Postemergence, 500 g ai/ha, visual injury, 0 to 100 scale (0 no effect, 100 complete control), approx. ten days
# [9] = Preemergence, 125 g ai/ha, 0 to 100 scale, 0 = no effect, 100 = complete control
# [10] = Preemergence, 500 g ai/ha, 0 to 100 scale, 0 = no effect, 100 = complete control
# [11] = 250 g ai/ha, flooded paddy test, visual rating on 0 to 100 scale (0 no effect, 100 complete control) after 13 to 15 days
# [12] = Flood (flooded paddy test), 62 g ai/ha, scale of 0 to 100 where 0 is no effect and 100 is complete control, 13 to 15 days
# [13] = Flood (flooded paddy test), 125 g ai/ha, scale 0 to 100, 0 is no effect, 100 is complete control, 13 to 15 days
smiles,measurement,setting,value
"O=C(c1cnoc1C1CC1)c1cnc(-c2ccccc2)n(-c2ccccc2)c1=O [Compound 223, 5-[(5-cyclopropyl-4-isoxazolyl)-carbonyl]-2,3-diphenyl-4(3H)-pyrimidinone]",pest or weed control at 125 g/ha,"[1]; post-emergence, Postemergence, 125 g ai/ha, 0 to 100 scale where 0 is no effect and 100 is complete control, read-out: Plant response rating, Barnyardgrass",0%
same,pest or weed control at 500 g/ha,"[1]; post-emergence, Postemergence, 500 g ai/ha, visual injury, 0 to 100 scale (0 no effect, 100 complete control), approx. ten days, read-out: Barnyardgrass plant response rating",50%
same,pest or weed control at 125 g/ha,"[1]; pre-emergence, Preemergence, 125 g ai/ha, 0 to 100 scale, 0 = no effect, 100 = complete control, read-out: Plant response rating, Barnyardgrass",0%
same,pest or weed control at 500 g/ha,"[1]; pre-emergence, Preemergence, 500 g ai/ha, 0 to 100 scale, 0 = no effect, 100 = complete control, read-out: Plant response rating, Barnyardgrass",70%
same,"Corn plant response rating (crop injury, 0 = no effect, 100 = complete kill) at 125 g/ha","corn (Zea mays); Zea mays, post-emergence, 240 h, Postemergence, 125 g ai/ha, 0 to 100 scale where 0 is no effect and 100 is complete control",0%
same,plant injury at 500 g/ha,"corn (Zea mays); Zea mays, post-emergence, 240 h, Postemergence, 500 g ai/ha, visual injury, 0 to 100 scale (0 no effect, 100 complete control), approx. ten days, read-out: Corn plant response rating",20%
same,"Corn plant response rating (crop injury, 0 = no effect, 100 = complete kill) at 125 g/ha","corn (Zea mays); Zea mays, pre-emergence, 240 h, Preemergence, 125 g ai/ha, 0 to 100 scale, 0 = no effect, 100 = complete control",0%
same,"Corn plant response rating (crop injury, 0 = no effect, 100 = complete kill) at 500 g/ha","corn (Zea mays); Zea mays, pre-emergence, 240 h, Preemergence, 500 g ai/ha, 0 to 100 scale, 0 = no effect, 100 = complete control",0%
same,pest or weed control at 125 g/ha,"[2]; post-emergence, Postemergence, 125 g ai/ha, 0 to 100 scale where 0 is no effect and 100 is complete control, read-out: Plant response rating, Foxtail, Giant",0%
same,pest or weed control at 500 g/ha,"[2]; post-emergence, Postemergence, 500 g ai/ha, visual injury, 0 to 100 scale (0 no effect, 100 complete control), approx. ten days, read-out: Foxtail, Giant plant response rating",70%
same,pest or weed control at 125 g/ha,"[2]; pre-emergence, Preemergence, 125 g ai/ha, 0 to 100 scale, 0 = no effect, 100 = complete control, read-out: Plant response rating, Foxtail, Giant",30%
same,pest or weed control at 500 g/ha,"[2]; pre-emergence, Preemergence, 500 g ai/ha, 0 to 100 scale, 0 = no effect, 100 = complete control, read-out: Plant response rating, Foxtail, Giant",90%
same,pest or weed control at 125 g/ha,"[3]; post-emergence, Postemergence, 125 g ai/ha, 0 to 100 scale where 0 is no effect and 100 is complete control, read-out: Plant response rating, Pigweed",50%
same,pest or weed control at 500 g/ha,"[3]; post-emergence, Postemergence, 500 g ai/ha, visual injury, 0 to 100 scale (0 no effect, 100 complete control), approx. ten days, read-out: Pigweed plant response rating",70%
same,pest or weed control at 125 g/ha,"[3]; pre-emergence, Preemergence, 125 g ai/ha, 0 to 100 scale, 0 = no effect, 100 = complete control, read-out: Plant response rating, Pigweed",60%
same,pest or weed control at 500 g/ha,"[3]; pre-emergence, Preemergence, 500 g ai/ha, 0 to 100 scale, 0 = no effect, 100 = complete control, read-out: Plant response rating, Pigweed",90%
same,pest or weed control at 250 g/ha,"[4]; Echinochloa crus-galli, 360 h, 250 g ai/ha, flooded paddy test, visual rating on 0 to 100 scale (0 no effect, 100 complete control) after 13 to 15 days, read-out: Plant response rating, Flood, Barnyardgrass",0%
same,pest or weed control at 62 g/ha,"[4]; Echinochloa crus-galli, 360 h, Flood (flooded paddy test), 62 g ai/ha, scale of 0 to 100 where 0 is no effect and 100 is complete control, 13 to 15 days, read-out: Plant response rating, Barnyardgrass",0%
same,pest or weed control at 125 g/ha,"[4]; Echinochloa crus-galli, 360 h, Flood (flooded paddy test), 125 g ai/ha, scale 0 to 100, 0 is no effect, 100 is complete control, 13 to 15 days, read-out: Plant response rating, Barnyardgrass",0%
same,Barnyardgrass plant response rating,[4],0
same,Ducksalad plant response rating,[5],0
same,pest or weed control at 250 g/ha,"[5]; Heteranthera limosa, 360 h, 250 g ai/ha, flooded paddy test, visual rating on 0 to 100 scale (0 no effect, 100 complete control) after 13 to 15 days, read-out: Plant response rating, Flood, Ducksalad",0%
same,pest or weed control at 62 g/ha,"[5]; Heteranthera limosa, 360 h, Flood (flooded paddy test), 62 g ai/ha, scale of 0 to 100 where 0 is no effect and 100 is complete control, 13 to 15 days, read-out: Plant response rating, Ducksalad",0%
same,pest or weed control at 125 g/ha,"[5]; Heteranthera limosa, 360 h, Flood (flooded paddy test), 125 g ai/ha, scale 0 to 100, 0 is no effect, 100 is complete control, 13 to 15 days, read-out: Plant response rating, Ducksalad",0%
same,Rice plant response rating,rice (Oryza sativa),0
same,plant injury at 250 g/ha,"rice (Oryza sativa); Oryza sativa, 250 g ai/ha, flooded paddy test, visual rating on 0 to 100 scale (0 no effect, 100 complete control) after 13 to 15 days, read-out: Plant response rating, Flood, Rice",0%
same,plant injury at 62 g/ha,"rice (Oryza sativa); Oryza sativa, Flood (flooded paddy test), 62 g ai/ha, scale of 0 to 100 where 0 is no effect and 100 is complete control, 13 to 15 days, read-out: Plant response rating, Rice",0%
same,plant injury at 125 g/ha,"rice (Oryza sativa); Oryza sativa, Flood (flooded paddy test), 125 g ai/ha, scale 0 to 100, 0 is no effect, 100 is complete control, 13 to 15 days, read-out: Plant response rating, Rice",0%
same,pest or weed control at 250 g/ha,"[6]; Cyperus difformis, 360 h, 250 g ai/ha, flooded paddy test, visual rating on 0 to 100 scale (0 no effect, 100 complete control) after 13 to 15 days, read-out: Plant response rating, Flood, Sedge, Umbrella",0%
same,pest or weed control at 62 g/ha,"[6]; Cyperus difformis, 360 h, Flood (flooded paddy test), 62 g ai/ha, scale of 0 to 100 where 0 is no effect and 100 is complete control, 13 to 15 days, read-out: Plant response rating, Sedge, Umbrella",0%
same,pest or weed control at 125 g/ha,"[6]; Cyperus difformis, 360 h, Flood (flooded paddy test), 125 g ai/ha, scale 0 to 100, 0 is no effect, 100 is complete control, 13 to 15 days, read-out: Plant response rating, Sedge, Umbrella",0%
same,"Sedge, Umbrella plant response rating",[6],0
CCCn1c(-c2ccccc2)ncc(C(=O)C2=C(O)C3CCC(C3)C2=O)c1=O (stereo not drawn) [Compound 226],"Plant response rating, Barnyardgrass",[1]; [7],90
same,Barnyardgrass plant response rating,[1]; [8],90
same,"Plant response rating, Barnyardgrass",[1]; [9],30
same,"Plant response rating, Barnyardgrass",[1]; [10],100
same,"Plant response rating, Corn",corn (Zea mays); [7],10
same,Corn plant response rating,corn (Zea mays); [8],60
same,"Plant response rating, Corn",corn (Zea mays); [9],0
same,"Plant response rating, Corn",corn (Zea mays); [10],0
same,"Plant response rating, Foxtail, Giant",[2]; [7],90
same,"Foxtail, Giant plant response rating",[2]; [8],90
same,"Plant response rating, Foxtail, Giant",[2]; [9],70
same,"Plant response rating, Foxtail, Giant",[2]; [10],90
same,"Plant response rating, Pigweed",[3]; [7],100
same,Pigweed plant response rating,[3]; [8],100
same,"Plant response rating, Pigweed",[3]; [9],100
same,"Plant response rating, Pigweed",[3]; [10],100
same,"Plant response rating, Flood, Barnyardgrass",[4]; [11],95
same,"Plant response rating, Barnyardgrass",[4]; [12],60
same,"Plant response rating, Barnyardgrass",[4]; [13],95
same,Barnyardgrass plant response rating,[4],50
same,"Plant response rating, Flood, Ducksalad",[5]; [11],40
same,"Plant response rating, Ducksalad",[5]; [12],0
same,"Plant response rating, Ducksalad",[5]; [13],30
same,Ducksalad plant response rating,[5],0
same,"Plant response rating, Flood, Rice",rice (Oryza sativa); [11],65
same,"Plant response rating, Rice",rice (Oryza sativa); [12],40
same,"Plant response rating, Rice",rice (Oryza sativa); [13],60
same,Rice plant response rating,rice (Oryza sativa),20
same,"Plant response rating, Flood, Sedge, Umbrella",[6]; [11],60
same,"Plant response rating, Sedge, Umbrella",[6]; [12],40
same,"Plant response rating, Sedge, Umbrella",[6]; [13],50
same,"Sedge, Umbrella plant response rating",[6],30
CCn1c(-c2cccc(F)c2)ncc(C(=O)C2=C(O)C3CCC(C3)C2=O)c1=O (stereo not drawn) [Compound 236],"Plant response rating, Barnyardgrass",[1]; [7],90
same,Barnyardgrass plant response rating,[1]; [8],90
same,"Plant response rating, Barnyardgrass",[1]; [9],50
same,"Plant response rating, Barnyardgrass",[1]; [10],90
same,"Plant response rating, Corn",corn (Zea mays); [7],20
same,Corn plant response rating,corn (Zea mays); [8],50
same,"Plant response rating, Corn",corn (Zea mays); [9],0
same,"Plant response rating, Corn",corn (Zea mays); [10],10
same,"Plant response rating, Foxtail, Giant",[2]; [7],70
same,"Foxtail, Giant plant response rating",[2]; [8],90
same,"Plant response rating, Foxtail, Giant",[2]; [9],40
same,"Plant response rating, Foxtail, Giant",[2]; [10],70
same,"Plant response rating, Pigweed",[3]; [7],80
same,Pigweed plant response rating,[3]; [8],100
same,"Plant response rating, Pigweed",[3]; [9],80
same,"Plant response rating, Pigweed",[3]; [10],90
same,"Plant response rating, Flood, Barnyardgrass",[4]; [11],20
same,"Plant response rating, Barnyardgrass",[4]; [12],0
same,"Plant response rating, Barnyardgrass",[4]; [13],0
same,Barnyardgrass plant response rating,[4],0
same,"Plant response rating, Flood, Ducksalad",[5]; [11],70
same,"Plant response rating, Ducksalad",[5]; [12],0
same,"Plant response rating, Ducksalad",[5]; [13],60
same,Ducksalad plant response rating,[5],0
same,"Plant response rating, Flood, Rice",rice (Oryza sativa); [11],0
same,"Plant response rating, Rice",rice (Oryza sativa); [12],0
same,"Plant response rating, Rice",rice (Oryza sativa); [13],0
same,Rice plant response rating,rice (Oryza sativa),0
same,"Plant response rating, Flood, Sedge, Umbrella",[6]; [11],40
same,"Plant response rating, Sedge, Umbrella",[6]; [12],0
same,"Plant response rating, Sedge, Umbrella",[6]; [13],0
same,"Sedge, Umbrella plant response rating",[6],0
